Our source for the IC50 and inhibition values is patent publication US8124633B2, “Hydroxymethyl ether hydroisoindoline tachykinin receptor antagonists” (Merck Sharp & Dohme Corp., priority 2007, dated 2012).

Structures are written as SMILES. pIC50: −log10 of the molar value.

The target of this assay is T1, human neurokinin-1 receptor (NK1R) (Homo sapiens, UniProt P25103).
T1 construct: the cDNA for the human NK1R was cloned into the expression vector pCDM9; expressed in transfected cells
Description: Binding assay of human NK1R expressed in COS or CHO cells (125I-substance P competition). The note with it: for pIC50: 125I-substance P binding to human NK1R expressed in COS or CHO cells. The method, then: Receptor Expression in COS: To express the cloned human neurokinin-1 receptor (NK1R) transiently in COS, the cDNA for the human NK1R was cloned into the expression vector pCDM9 which was derived from pCDM8 (INVITROGEN) by inserting the ampicillin resistance gene (nucleotide 1973 to 2964 from BLUESCRIPT SK+) into the Sac II site. Transfection of 20 ug of the plasmid DNA into 10 million COS cells was achieved by electroporation in 800 ul of transfection buffer (135 mM NaCl, 1.2 mM CaCl2, 1.2 mM MgCl2, 2.4 mM K2HPO4, 0.6 mM KH2PO4, 10 mM glucose, 10 mM HEPES pH 7.4) at 260 V and 950 uF using the IBI GENEZAPPER (1131, New Haven, Conn.). The cells were incubated in 10% fetal calf serum, 2 mM glutamine, 100 U/ml penicillin-streptomycin, and 90% DMEM media (GIBCO, Grand Island, N.Y.) in 5% CO2 at 37° C. for three days before the binding assay.
Stable Expression in CHO: To establish a stable cell line expressing the cloned human NK1R, the cDNA was subcloned into the vector pRcCMV (INVITROGEN). Transfection of 20 ug of the plasmid DNA into CHO cells was achieved by electroporation in 800 ul of transfection buffer supplemented with 0.625 mg/ml Herring sperm DNA at 300 V and 950 uF using the IBI GENEZAPPER (IBI). The transfected cells were incubated in CHO media [10% fetal calf serum, 100 U/ml penicillin-streptomycin, 2 mM glutamine, 1/500 hypoxanthine-thymidine (ATCC), 90% IMDM media (JRH BIOSCIENCES, Lenexa, Kans.), 0.7 mg/ml G418 (GIBCO)] in 5% CO2 at 37° C. until colonies were visible. Each colony was separated and propagated. The cell clone with the highest number of human NK1R was selected for subsequent applications such as drug screening.
Assay Protocol using COS or CHO: The binding assay of human NK1R expressed in either COS or CHO cells is based on the use of ^125I-substance P (^125I-SP, from DU PONT, Boston, Mass.) as a radioactively labeled ligand which competes with unlabeled substance P or any other ligand for binding to the human NK1R. Monolayer cell cultures of COS or CHO were dissociated by the non-enzymatic solution (SPECIALTY MEDIA, Lavallette, N.J.) and resuspended in appropriate volume of the binding buffer (50 mM Tris pH 7.5, 5 mM MnCl2, 150 mM NaCl, 0.04 mg/ml bacitracin, 0.004 mg/ml leupeptin, 0.2 mg/ml BSA, 0.01 mM phosphoramidon) such that 200 ul of the cell suspension would give rise to about 10,000 cpm of specific ^125I-SP binding (approximately 50,000 to 200,000 cells). In the binding assay, 200 ul of cells were added to a tube containing 20 ul of 1.5 to 2.5 nM of ^125I-SP and 20 ul of unlabeled substance P or any other test compound. The tubes were incubated at 4° C. or at room temperature for 1 hour with gentle shaking. The bound radioactivity was separated from unbound radioactivity by GF/C filter (BRANDEL, Gaithersburg, Md.) which was pre-wetted with 0.1% polyethylenimine. The filter was washed with 3 ml of wash buffer (50 mM Tris pH 7.5, 5 mM MnCl2, 150 mM NaCl) three times and its radioactivity was determined by gamma counter. The activation of phospholipase C by NK1R may also be measured in CHO cells expressing the human NK1R by determining the accumulation of inositol monophosphate which is a degradation product of IP3. CHO cells are seeded in 12-well plate at 250,000 cells per well. After incubating in CHO media for 4 days, cells are loaded with 0.025 uCi/ml of 3H-myoinositol by overnight incubation. The extracellular radioactivity is removed by washing with phosphate buffered saline. LiCl is added to the well at final concentration of […] with or without the test compound, and incubation is continued at 37° C. for […]. Substance P is added to the well at final concentration of 0.3 nM to activate the human NK1R. After 30 min of incubation at 37° C., the media is removed and 0.1 N HCl is added. Each well is sonicated at 4° C. and extracted with CHCl3/methanol (1:1). The aqueous phase is applied to a 1 ml Dowex AG 1×8 ion exchange column. […]

T1 sequence (P25103 whole entry): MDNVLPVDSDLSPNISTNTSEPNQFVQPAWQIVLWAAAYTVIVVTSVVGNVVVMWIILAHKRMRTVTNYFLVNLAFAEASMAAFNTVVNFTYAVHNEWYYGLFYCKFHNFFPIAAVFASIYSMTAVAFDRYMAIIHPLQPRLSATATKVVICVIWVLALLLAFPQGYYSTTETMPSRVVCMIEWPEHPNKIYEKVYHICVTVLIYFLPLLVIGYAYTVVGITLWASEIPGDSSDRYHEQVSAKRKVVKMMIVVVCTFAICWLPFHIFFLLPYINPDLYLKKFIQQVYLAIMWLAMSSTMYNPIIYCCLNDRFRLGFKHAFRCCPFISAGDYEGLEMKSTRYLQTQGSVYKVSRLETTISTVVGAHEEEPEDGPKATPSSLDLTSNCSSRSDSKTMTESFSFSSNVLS

Molecule `Cc1ccccc1[C@H]1[C@@H]2CNC[C@H]2CC[C@@H]1O[C@H](CO)c1cc(C(F)(F)F)cc(C(F)(F)F)c1` [Example 2, (2S)-2-[3,5-bis(trifluoromethyl)phenyl]-2-{[(3aR,4R,5S,7aS)-4-(2-methylphenyl)octahydro-1H-isoindol-5-yl]oxy}ethanol] had a pIC50 of 10.40.

In turn, `Cc1ccccc1[C@H]1[C@@H]2CN(C3=CC(=O)CC3)C[C@H]2CC[C@@H]1O[C@H](CO)c1cc(C(F)(F)F)cc(C(F)(F)F)c1` [Example 3, 3-[(3aR,4R,5S,7aS)-5-{(1S)-1-[3,5-bis(trifluoromethyl)phenyl]-2-hydroxyethoxy}-4-(2-methylphenyl)octahydro-2H-isoindol-2-yl]cyclopent-2-en-1-one] gave a negative logarithm of the IC50 (pIC50) of 10.22.

Consider `COC[C@@H](O[C@H]1CC[C@@H]2CN(C3=CC(=O)CC3)C[C@H]2[C@@H]1c1ccccc1C)c1cc(C(F)(F)F)cc(C(F)(F)F)c1` [Example 4, 3-[(3aR,4R,5S,7aS)-5-{(1S)-1-[3,5-bis(trifluoromethyl)phenyl]-2-methoxyethoxy}-4-(2-methylphenyl)octahydro-2H-isoindol-2-yl]cyclopent-2-en-1-one], for which the pIC50 was 10.00.

Consider `Cc1ccccc1[C@H]1[C@@H]2CN(C3=NC(=O)CO3)C[C@H]2CC[C@@H]1O[C@H](CO)c1cc(C(F)(F)F)cc(C(F)(F)F)c1` [Example 5, 2-[(3aR,4R,5S,7aS)-5-{(1S)-1-[3,5-bis(trifluoromethyl)phenyl]-2-hydroxyethoxy}-4-(2-methylphenyl)octahydro-2H-isoindol-2-yl]-1,3-oxazol-4(5H)-one], for which the negative logarithm of the IC50 (pIC50) was 10.22.

On to `Cc1ccccc1[C@H]1[C@@H]2CN(C(=O)N(C)C)C[C@H]2CC[C@@H]1O[C@H](CO)c1cc(C(F)(F)F)cc(C(F)(F)F)c1` [Example 6, (3aR,4R,5S,7aS)-5-{(1S)-1-[3,5-bis(trifluoromethyl)phenyl]-2-hydroxyethoxy}-N,N-dimethyl-4-(2-methylphenyl)octahydro-2H-isoindole-2-carboxamide], for which the pIC50 was 10.52.

In the case of `Cc1ccccc1[C@H]1[C@@H]2CN(C(=O)C(C)C)C[C@H]2CC[C@@H]1O[C@H](CO)c1cc(C(F)(F)F)cc(C(F)(F)F)c1` [Example 7, (2S)-2-[3,5-bis(trifluoromethyl)phenyl]-2-{[(3aR,4R,5S,7aS)-2-isobutyryl-4-(2-methylphenyl)octahydro-1H-isoindol-5-yl]oxy}ethanol], the pIC50 was 10.10.

Regarding `O=C1COC(N2C[C@H]3CC[C@H](O[C@H](CO)c4cc(C(F)(F)F)cc(C(F)(F)F)c4)[C@@H](c4ccc(F)cc4)[C@@H]3C2)=N1` [Example 8], the pIC50 is 10.52.

`O=C1C=C(N2C[C@H]3CC[C@H](O[C@H](CO)c4cc(C(F)(F)F)cc(C(F)(F)F)c4)[C@@H](c4ccc(F)cc4)[C@@H]3C2)CC1` [Example 9] had a pIC50 of 10.05.

`Cc1cc(F)ccc1[C@H]1[C@@H]2CN(C3=NC(=O)CO3)C[C@H]2CC[C@@H]1O[C@H](CO)c1cc(C(F)(F)F)cc(C(F)(F)F)c1` [Example 10] gave a pIC50 of 10.52.

`Cc1cc(F)ccc1[C@H]1[C@@H]2CN(C3=CC(=O)CC3)C[C@H]2CC[C@@H]1O[C@H](CO)c1cc(C(F)(F)F)cc(C(F)(F)F)c1` [Example 11] gave a pIC50 of 10.52.

As for `Cc1ccccc1[C@H]1[C@@H]2CN(C(=O)C(C)(C)C)C[C@H]2CC[C@@H]1O[C@H](CO)c1cc(C(F)(F)F)cc(C(F)(F)F)c1` [Example 12], the pIC50 is 10.15.

As to `Cc1ccccc1[C@H]1[C@@H]2CN(C(=O)C3CC3)C[C@H]2CC[C@@H]1O[C@H](CO)c1cc(C(F)(F)F)cc(C(F)(F)F)c1` [Example 13], the pIC50 was 10.22.

As to `COC[C@@H](O[C@H]1CC[C@@H]2CN(C(=O)N(C)C)C[C@H]2[C@@H]1c1ccccc1C)c1cc(C(F)(F)F)cc(C(F)(F)F)c1` [Example 14], the pIC50 was 9.34.

`OC[C@@H](O[C@H]1CC[C@@H]2CNC[C@H]2[C@@H]1c1ccc(F)cc1)c1cc(C(F)(F)F)cc(C(F)(F)F)c1` [Example 16] had a negative-log IC50 (pIC50) of 9.46.

The molecule `O=C1C=C(N2C[C@H]3CC[C@H](O[C@@H](CO)c4cc(C(F)(F)F)cc(C(F)(F)F)c4)[C@@H](c4ccc(F)cc4)[C@@H]3C2)CC1` [Example 21] gave a pIC50 of 7.26.

As to `Cc1ccccc1[C@H]1[C@@H]2CNC[C@H]2CC[C@@H]1O[C@@H](CO)c1cc(C(F)(F)F)cc(C(F)(F)F)c1` [Example 22], the pIC50 was 8.66.

`Cc1ccccc1[C@H]1[C@@H]2CN(C(=O)C(C)(C)C)C[C@H]2CC[C@@H]1O[C@@H](CO)c1cc(C(F)(F)F)cc(C(F)(F)F)c1` [Example 24] gave a negative-log IC50 (pIC50) of 7.35.

In turn, `OC[C@H](O[C@H]1CC[C@@H]2CNC[C@H]2[C@@H]1c1ccc(F)cc1)c1cc(C(F)(F)F)cc(C(F)(F)F)c1` [Example 27] registered an inhibition at 0.0001 µM (at 0.1 nM, 125I-substance P binding to human NK1R) of 47%.

As usually defined, the pIC50 is the IC50 on a negative log10 scale, so that one unit is a factor of ten. As usually defined, the inhibition is the change of the read-out against control, counted positive when it falls.
